These results are taken from US6110962A, “11-aryl-benzo[B]naphtho[2,3-D]furans and 11-aryl-benzo[B]naphtho[2,3-D]thiophenes useful in the treatment of insulin resistance and hyperglycemia” (American Home Products Corporation, priority 1999, dated 2000).

A word on the IC50: it is the point on the concentration scale where inhibition reaches its midpoint.

Where a name gives a salt, the structure may show the parent alone. Read-outs that look alike come from different tables or passages of the source.

The target in one assay is T1, Human recombinant PTP1B (Homo sapiens, UniProt P18031).
T1 construct: made in house
T1 sequence (P18031 1-435): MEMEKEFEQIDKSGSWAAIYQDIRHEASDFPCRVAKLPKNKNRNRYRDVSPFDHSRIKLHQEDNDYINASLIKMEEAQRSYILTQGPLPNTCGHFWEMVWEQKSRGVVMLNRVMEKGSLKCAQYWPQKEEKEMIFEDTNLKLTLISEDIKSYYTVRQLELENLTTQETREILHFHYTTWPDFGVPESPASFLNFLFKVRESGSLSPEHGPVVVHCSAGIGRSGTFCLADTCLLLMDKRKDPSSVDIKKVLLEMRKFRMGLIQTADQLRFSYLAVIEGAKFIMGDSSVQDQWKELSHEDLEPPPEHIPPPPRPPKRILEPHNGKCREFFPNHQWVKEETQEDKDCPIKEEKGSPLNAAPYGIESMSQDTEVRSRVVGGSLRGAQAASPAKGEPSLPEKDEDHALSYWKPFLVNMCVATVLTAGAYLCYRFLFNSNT
It is filed as biochemical. The conditions noted are these: read-out: IC50.

Assay [1] concerns rat hepatic microsomal PTPases. Particulars: PTPase activity, compound at 50 μM.
The subject of another assay is diabetic (ob/ob) mice. Kind of assay: Blood glucose lowering activity in diabetic (ob/ob) mice. It is filed as in vivo, mouse. Particulars: ob/ob mice; for change in vivo at 100 mg/kg / change in vivo at 25 mg/kg / change in vivo at 10 mg/kg / change in vivo at 50 mg/kg / change in vivo at 75 mg/kg / change in vivo at 5 mg/kg: Mus musculus, po. As for the experimental part:
The blood glucose lowering activity of representative compounds of this invention were determined in an in vivo standard procedure using diabetic (ob/ob) mice. The procedures used and results obtained are briefly described below. The non-insulin dependent diabetic (NIDDM) syndrome can be typically characterizes by obesity, hyperglycemia, abnormal insulin secretion, hyperinsulinemia and insulin resistance. […] In each test procedure, mice [Male or female ob/ob (C57 B1/6J) and their lean litermates (ob+ or +/+, Jackson Laboratories) ages 2 to 5 months (10 to 65 g)] of a similar age were randomized according to body weight into 4 groups of 10 mice. The mice were housed 5 per cage and are maintained on normal rodent chow with water ad libitum. Mice received test compound daily by gavage (suspended in 0.5 ml of 0.5% methyl cellulose); dissolved in the drinking water; or admixed in the diet. […] The dose is calculated based on the fed weekly body weight and is expressed as active moiety. […] Control mice received vehicle only. On the morning of Day 4, 7 or 14 two drops of blood (approximetly 50 ul) were collected into sodium fluoride containing tubes either from the tail vein or after decapitation. For those studies in which the compound was administered daily by gavage the blood samples were collected two hours after compound administration. The plasma was isolated by centrifugation and the concentration of glucose is measured enzymatically on an Abbott V. P. Analyzer. […] Analysis of variance followed by Dunett's Comparison Test (one-tailed) are used to estimate the significant difference between the plasma glucose values from the control group and the individual compound treated groups (CMS SAS Release 5.18).

Where [2] appears, read: 96 h, dose 100 mg/Kg, plasma glucose Day 4, 7 or 14, read-out: % Change Glucose from Vehicle.
Where [3] appears, read: 96 h, dose 25 mg/Kg, plasma glucose Day 4, 7 or 14, read-out: % Change Glucose from Vehicle.
[4] abbreviates: dose 25 mg/Kg, read-out: % Change Insulin from Vehicle.
[5] abbreviates: 96 h, plasma glucose Day 4, 7 or 14, read-out: % Change Glucose from Vehicle.
Setting [6] is: read-out: % Change Insulin from Vehicle.
Where [7] appears, read: dose 100 mg/Kg, read-out: % Change Insulin from Vehicle.

In the case of `O=C(O)COc1c(Br)cc(-c2c3ccccc3c(Br)c3sc4ccccc4c23)cc1Br` [Example 79, [2,6-Dibromo-4-(6-bromo-benzo[b]naphtho[2,3-d]thiophen-11-yl)-phenoxy]-acetic acid], the half-maximal inhibitory concentration (IC50) at Human recombinant PTP1B came out at 386 nM. Further, the “% Change from Control” value in assay [1] was -82.58%. For the same molecule, in the assay with diabetic (ob/ob) mice (setting [2]), the change in vivo at 100 mg/kg is -22.6%. For the same molecule, in the assay with diabetic (ob/ob) mice (dose 100 mg/Kg, plasma glucose Day 4, 7 or 14, 100 mg/kg), the “% Change Glucose from Vehicle” value was -22.60%.

With `O=C(O)[C@@H](Cc1ccccc1)Oc1c(Br)cc(-c2c3ccccc3c(I)c3sc4ccccc4c23)cc1Br` [Example 136], the IC50 at Human recombinant PTP1B amounted to 50 nM. Moreover, in assay [1], the “% Change from Control” value was -63.42%. The values for the change in vivo at 25 mg/kg in the assay on diabetic (ob/ob) mice (setting [3]) and in the assay on diabetic (ob/ob) mice (setting [4]) were -23.6% and -52%, respectively.

Turning to `O=C(O)[C@@H](Cc1ccccc1)Oc1c(Br)cc(-c2c3ccccc3c(Br)c3sc4ccccc4c23)cc1Br` [Example 108, (R)-2-[2,6-Dibromo-4-(6-bromo-benzo[b]naphtho[2,3-d]thiophen-11-yl)-phenoxy]-3-phenyl-propionic acid], at Human recombinant PTP1B, the half-inhibitory concentration (IC50) was 61 nM. For the same molecule, the “% Change from Control” value in assay [1] (50 µM) was -72.94%. The change in vivo at 10 mg/kg in the assay with diabetic (ob/ob) mice (setting [5]) is -26.1%; in the assay on diabetic (ob/ob) mice (setting [6]) it was -30.3%. In addition, the figures for the change in vivo at 50 mg/kg with diabetic (ob/ob) mice (setting [5]) and with diabetic (ob/ob) mice (setting [6]) were -34.8% and -84.8%, respectively. Further, the change in vivo at 75 mg/kg in the assay on diabetic (ob/ob) mice (setting [5]) is -49.7%; in the assay on diabetic (ob/ob) mice (setting [6]), -89.6%. The change in vivo at 100 mg/kg was -45.8% with diabetic (ob/ob) mice (setting [2]) and -72.6% in the assay with diabetic (ob/ob) mice (setting [7]). For the same molecule, the “% Change Insulin from Vehicle” value in the assay with diabetic (ob/ob) mice (dose 25 mg/Kg) is reported as -71.03%. In addition, the “% Change Glucose from Vehicle” value with diabetic (ob/ob) mice (dose 25 mg/Kg, plasma glucose Day 4, 7 or 14, 25 mg/kg) is -25.66%.

Take `CC(C)c1cc(-c2c3ccccc3c(Br)c3sc4ccccc4c23)cc(C(C)C)c1OCC(=O)O` [Example 89, [4-(6-Bromo-benzo[b]naphtho[2,3-d]thiophen-11-yl)-2,6-diisopropyl-phenoxy)-acetic acid]: at Human recombinant PTP1B, the 50% inhibitory concentration (IC50) was 126 nM. In addition, in assay [1], the “% Change from Control” value was -61.04%. Moreover, the change in vivo at 10 mg/kg with diabetic (ob/ob) mice (setting [5]) was -24.9%.

As for `N#Cc1c2ccccc2c(-c2cc(Br)c(O[C@@H](Cc3ccccc3)C(=O)O)c(Br)c2)c2c1sc1ccccc12` [Example 115, (S)-2-[2,6-Dibromo-4-(6-cyano-benzo[b]naphtho[2,3-d]thiophen-11-yl)-phenoxy]-3-phenyl-propionic acid], the IC50 on Human recombinant PTP1B worked out at 279 nM. In assay [1], the “% Change from Control” value was -55.43%. For the same molecule, the change in vivo at 100 mg/kg with diabetic (ob/ob) mice (setting [2]) is -33.9%; in the assay with diabetic (ob/ob) mice (setting [7]) it was 52%.

`O=C(O)[C@@H](Cc1ccccc1)Oc1c(Br)cc(-c2c3ccccc3c(Sc3ccccc3)c3sc4ccccc4c23)cc1Br` [Example 128, (R)-2-[2,6-Dibromo-4-(6-phenylsulfanyl-benzo[b]naphtho[2,3-d]thiophen-11-yl)-phenoxy]-3-phenyl-propionic acid]: on Human recombinant PTP1B, the IC50 came out at 25 nM. Moreover, the “% Change from Control” value in assay [1] was -50.94%. In addition, the change in vivo at 25 mg/kg is 3.1% in the assay with diabetic (ob/ob) mice (setting [3]) and -38.8% with diabetic (ob/ob) mice (setting [4]).

For `O=C(O)[C@@H](Cc1ccccc1)Oc1ccc(-c2c3ccccc3cc3sc4ccccc4c23)cc1` [Example 117, (R)-2-[4-(Benzo[b]naphtho[2,3-d]thiophen-11-yl)-phenoxy]-3-phenyl-propionicacid], the 50% inhibitory concentration (IC50) on Human recombinant PTP1B was 1510 nM. For the same molecule, in assay [1], the “% Change from Control” value is listed as -79.06%. The change in vivo at 100 mg/kg in the assay with diabetic (ob/ob) mice (setting [2]) is -14.5%; in the assay on diabetic (ob/ob) mice (setting [7]), -83.8%.

For the molecule `O=C(O)COc1c(Br)cc(-c2c3ccccc3c(Br)c3oc4ccccc4c23)cc1Br` [Example 215, [2,6-Dibromo-4-(6-bromo-benzo[b]naphtho[2,3-d]furan-11-yl)-phenoxy]-acetic acid], the IC50 at Human recombinant PTP1B is 490 nM. The “% Change from Control” value in assay [1] is reported as -80.93%. Moreover, the change in vivo at 100 mg/kg was -39.4% in the assay with diabetic (ob/ob) mice (setting [2]) and -4.66% with diabetic (ob/ob) mice (setting [7]).

For the molecule `C[C@@H](Oc1c(Br)cc(-c2c3ccccc3c(I)c3sc4ccccc4c23)cc1Br)C(=O)O` [Example 135, (R)-2-[2,6-Dibromo-4-(6-iodo-benzo[b]naphtho[2,3-d]thiophen-11-yl]-phenoxy]-propionic acid], the IC50 at Human recombinant PTP1B came out at 209 nM. The “% Change from Control” value in assay [1] is on record as -59.75%. For the same molecule, the change in vivo at 25 mg/kg was -15.8% in the assay with diabetic (ob/ob) mice (setting [3]) and -57.4% with diabetic (ob/ob) mice (setting [4]).

On to `O=C(O)[C@@H](Cc1ccccc1)Oc1c(Br)cc(-c2c3ccccc3c(Br)c3oc4ccccc4c23)cc1Br` [Example 216, (R)-2-[2,6-Dibromo-4-(6-bromo-benzo[b]naphtho[2,3-d]furan-11-yl)-phenoxy]-3-phenyl-propionic acid], for which the half-inhibitory concentration (IC50) on Human recombinant PTP1B came out at 83 nM. The “% Change from Control” value in assay [1] is -60.67%. Moreover, the change in vivo at 5 mg/kg in the assay on diabetic (ob/ob) mice (setting [5]) was -14.8%; in the assay with diabetic (ob/ob) mice (setting [6]), -55.9%. Further, the change in vivo at 10 mg/kg is -28.7% in the assay on diabetic (ob/ob) mice (setting [5]) and -69.4% with diabetic (ob/ob) mice (setting [6]).

As for `C[C@@H](Oc1c(Br)cc(-c2c3ccccc3c(Sc3ccccc3)c3sc4ccccc4c23)cc1Br)C(=O)O` [Example 129, (R)-2-[2,6-Dibromo-4-(6-phenylsulfanyl-benzo[b]naphthor[2,3-d]thiophen-11-yl)-phenoxy]-propionic acid], on Human recombinant PTP1B, the 50% inhibitory concentration (IC50) was 46 nM. For the same molecule, the “% Change from Control” value in assay [1] is given as -59.03%. The results for the change in vivo at 25 mg/kg in the assay with diabetic (ob/ob) mice (setting [3]) and in the assay on diabetic (ob/ob) mice (setting [4]) were -14.9% and -54.6%, respectively.

`O=C(O)[C@@H](Cc1ccccc1)Oc1c(Br)cc(-c2c3ccccc3c(Br)c3sc4ccccc4c23)cc1Br` [Example 109, (R)-2-[2,6-Dibromo-4-(6-bromo-benzo[b]naphtho[2,3-d]thiophen-11-yl)-phenoxy]-3-phenyl-propionic acid, sodium salt]: on Human recombinant PTP1B, the IC50 amounted to 71 nM. Also, in assay [1] (sodium salt, 50 µM), the “% Change from Control” value is listed as -66.67%. Moreover, the “% Change Glucose from Vehicle” value in the assay with diabetic (ob/ob) mice (dose 25 mg/Kg, plasma glucose Day 4, 7 or 14, sodium salt, 25 mg/kg) is on record as -26.31%. Moreover, the “% Change Insulin from Vehicle” value in the assay on diabetic (ob/ob) mice (dose 25 mg/Kg, sodium salt) is listed as -71.64%.

For `CC(C)c1cc(-c2c3ccccc3c(Br)c3sc4ccccc4c23)cc(C(C)C)c1O[C@H](Cc1ccccc1)C(=O)O` [Example 139, (2R)-2-[4-(6-Bromo-benzo[b]naphtho[2,3-d]thiophen-11-yl)-2,6-diisopropyl-phenoxy)-3-phenyl-propionic acid], the half-maximal inhibitory concentration (IC50) on Human recombinant PTP1B came out at 61 nM. Besides, the “% Change from Control” value in assay [1] is recorded as -64.89%. Also, the change in vivo at 25 mg/kg is -18.5% with diabetic (ob/ob) mice (setting [3]) and -22% in the assay on diabetic (ob/ob) mice (setting [4]).

For the molecule `O=C(O)[C@@H](CCc1ccccc1)Oc1c(Br)cc(-c2c3ccccc3c(Br)c3sc4ccccc4c23)cc1Br` [Example 113], the IC50 at Human recombinant PTP1B was 45 nM. For the same molecule, the “% Change from Control” value in assay [1] is -101.01%. Moreover, the values for the change in vivo at 25 mg/kg with diabetic (ob/ob) mice (setting [3]) and in the assay with diabetic (ob/ob) mice (setting [4]) were -0.5% and -55.8%, respectively.

On to `O=C(O)[C@H](Cc1ccccc1)Oc1c(Br)cc(-c2c3ccccc3c(Br)c3sc4ccccc4c23)cc1Br` [Example 111, (S)-2-[2,6-Dibromo-4-(6-bromo-benzo[b]naphtho[2,3-d]thiophen-11-yl)-phenoxy]-3-phenyl-propionic acid], for which the half-maximal inhibitory concentration (IC50) at Human recombinant PTP1B stood at 62 nM. Further, in assay [1], the “% Change from Control” value was -76.45%. Moreover, the change in vivo at 100 mg/kg in the assay on diabetic (ob/ob) mice (setting [2]) was -39.4%; in the assay with diabetic (ob/ob) mice (setting [7]), -17.9%.
